Experimental data: patent US20260207563A1, “UREA COMPOUNDS AS ACTIVATORS OF POTASSIUM CHANNELS KV7.2/7.3 USEFUL IN THE TREATMENT OF CNS AND PNS DISORDERS” (ANGELINI PHARMA S.P.A., priority 2022, published 2026)
Each block holds one compound with its values, some of them ahead of it.

Experiments:
Format in all cases: cell-based
[1] = target: T1, homomeric KV7.4 channel (KCNQ4) (Homo sapiens, UniProt P56696); assay: Automated patch-clamp (Qube) counter-screening assay against KV7.4 channel; settings: CHO-K1 cells expressing KV7.4; class by maximal shift in the Vhalf at 30 μM
T1 construct: host or cells: CHO-K1
Procedure, shortened: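 EC50 and maximal shift in half-activation voltage come from 4-parameter logistic fits of mean Vhalf shifts. The series had ten 1-in-3 concentrations, highest 30 μM, each tested in quadruplicate. Recordings used automated Qube patch clamp on a stable CHO-K1 line expressing KCNQ4, and selectivity was judged from the 30 μM Vhalf shift.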

[2] = target: T2, heteromeric KV7.3/KV7.5 channel (KCNQ3, KCNQ5) (Homo sapiens, UniProt O43525+Q9NR82); assay: Automated patch-clamp counter-screening against KV7.3/KV7.5 channel; settings: HEK293 cells expressing Kv7.3/KV7.5; class by maximal shift in the Vhalf at 30 μM
T2 construct: host or cells: HEK293
Procedure, shortened: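 Potency came from a 4-parameter logistic fit of mean voltage-of-half-activation shifts, yielding EC50 and maximal shift; selectivity was judged on the shift at 30 μM. Compounds were applied at ten 3-fold dilutions from 30 μM in quadruplicate to HEK293 cells stably carrying Kv7.3 with tet-inducible Kv7.5.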

[3] = target: T3, heteromeric KV7.2/KV7.3 channels (KCNQ2, KCNQ3) (Homo sapiens, UniProt O43525+O43526); assay: Automated patch-clamp (Sophion Qube 384) potency assay against KV7.2/KV7.3 channels; settings: CHO-K1/Kv7.2/Kv7.3 cells; for EC50: EC50 from concentration-response of shift in Vhalf, 10 concentrations up to 30 μM, read-out: Kv7.2/7.3 EC50; for Kv7.2/7.3 ΔV1/2: maximal shift in the Vhalf from the top of the curve
T3 construct: expressed in transfected cells; host or cells: CHO-K1
Procedure, shortened: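 Activator potency: EC50 from 4-parameter logistic fit of mean Vhalf shift across ten 1-in-3 dilutions starting at 30 μM (n=4), with DMSO (typically 0.3%) control. Currents recorded by leak-subtracted whole-cell clamp of stable CHO-K1 KV7.2/KV7.3 cells, held at −80 mV, stepped −100 to +20 mV then 0 mV tails.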

SMILES: C[C@H](NC(=O)NCCC1(C(F)(F)F)CC1)c1ccnc(OCC(F)(F)F)c1 [Compound 67, (S)-1-(1-(2-(2,2,2-Trifluoroethoxy)pyridin-4-yl)ethyl)-3-(2-(1-(trifluoromethyl)cyclopropyl)ethyl)urea]
Kv7.4 selectivity criteria [1]: A (Selective compounds showed Kv7.4 and/or Kv7.3/7.5 ΔV1/2 equal to or lower than 15 mV (letter A in table 3))
Kv7.3/7.5 selectivity criteria [2]: A (Selective compounds showed Kv7.4 and/or Kv7.3/7.5 ΔV1/2 equal to or lower than 15 mV (letter A in table 3))
EC50 [3]: 5000 nM
Kv7.2/7.3 ΔV1/2 [3]: 23.87 mV

SMILES: CN(CC(F)(F)F)c1cc(CNC(=O)NCCC2(C(F)(F)F)CC2)ccn1 [Compound 68, 1-((2-(Methyl(2,2,2-trifluoroethyl)amino)pyridin-4-yl)methyl)-3-(2-(1-(trifluoromethyl)cyclopropyl)ethyl)urea]
Kv7.4 selectivity criteria [1]: A (Selective compounds showed Kv7.4 and/or Kv7.3/7.5 ΔV1/2 equal to or lower than 15 mV (letter A in table 3))
Kv7.3/7.5 selectivity criteria [2]: A (Selective compounds showed Kv7.4 and/or Kv7.3/7.5 ΔV1/2 equal to or lower than 15 mV (letter A in table 3))
EC50 [3]: 4730 nM
Kv7.2/7.3 ΔV1/2 [3]: 27.19 mV

SMILES: O=C(NCCC1(C(F)(F)F)CC1)NCc1ccnc(C(F)(F)F)c1 [Compound 69, 1-(2-(1-(Trifluoromethyl)cyclopropyl)ethyl)-3-((2-(trifluoromethyl)pyridin-4-yl)methyl)urea]
Kv7.4 selectivity criteria [1]: A (Selective compounds showed Kv7.4 and/or Kv7.3/7.5 ΔV1/2 equal to or lower than 15 mV (letter A in table 3))
Kv7.3/7.5 selectivity criteria [2]: A (Selective compounds showed Kv7.4 and/or Kv7.3/7.5 ΔV1/2 equal to or lower than 15 mV (letter A in table 3))
EC50 [3]: 4280 nM
Kv7.2/7.3 ΔV1/2 [3]: 23.15 mV

SMILES: O=C(NCc1ccnc(OCC(F)(F)F)c1)NCC1CCC(F)(F)CC1 [Compound 70, 1-((4,4-Difluorocyclohexyl)methyl)-3-((2-(2,2,2-trifluoroethoxy)pyridin-4-yl)methyl)urea]
Kv7.4 selectivity criteria [1]: A (Selective compounds showed Kv7.4 and/or Kv7.3/7.5 ΔV1/2 equal to or lower than 15 mV (letter A in table 3))
Kv7.3/7.5 selectivity criteria [2]: A (Selective compounds showed Kv7.4 and/or Kv7.3/7.5 ΔV1/2 equal to or lower than 15 mV (letter A in table 3))
EC50 [3]: 975 nM
Kv7.2/7.3 ΔV1/2 [3]: 26.04 mV

SMILES: O=C(NCc1ccnc(OCC(F)(F)F)c1)NC1CCC(F)(F)CC1 [Compound 71, 1-(4,4-Difluorocyclohexyl)-3-((2-(2,2,2-trifluoroethoxy)pyridin-4-yl)methyl)urea]
Kv7.4 selectivity criteria [1]: B (Non-selective compounds showed Kv7.4 and/or Kv7.3/7.5 ΔV1/2 higher than 15 mV (letter B in table 3))
Kv7.3/7.5 selectivity criteria [2]: B (Non-selective compounds showed Kv7.4 and/or Kv7.3/7.5 ΔV1/2 higher than 15 mV (letter B in table 3))
EC50 [3]: 1580 nM
Kv7.2/7.3 ΔV1/2 [3]: 55.93 mV

SMILES: CC(C)(C)[C@@H](O)CNC(=O)NCc1ccnc(OCC(F)(F)C(F)(F)F)c1 [Compound 73, (R)-1-(2-Hydroxy-3,3-dimethylbutyl)-3-((2-(2,2,3,3,3-pentafluoropropoxy)pyridin-4-yl)methyl)urea]
Kv7.4 selectivity criteria [1]: A (Selective compounds showed Kv7.4 and/or Kv7.3/7.5 ΔV1/2 equal to or lower than 15 mV (letter A in table 3))
Kv7.3/7.5 selectivity criteria [2]: A (Selective compounds showed Kv7.4 and/or Kv7.3/7.5 ΔV1/2 equal to or lower than 15 mV (letter A in table 3))
EC50 [3]: 2470 nM
Kv7.2/7.3 ΔV1/2 [3]: 26.35 mV

SMILES: O=C(NCCC1(C(F)(F)F)CC1)NCc1ccnc(OCCC(F)(F)F)c1 [Compound 74, 1-(2-(1-(Trifluoromethyl)cyclopropyl)ethyl)-3-((2-(3,3,3-trifluoropropoxy)pyridin-4-yl)methyl)urea]
Kv7.4 selectivity criteria [1]: A (Selective compounds showed Kv7.4 and/or Kv7.3/7.5 ΔV1/2 equal to or lower than 15 mV (letter A in table 3))
Kv7.3/7.5 selectivity criteria [2]: A (Selective compounds showed Kv7.4 and/or Kv7.3/7.5 ΔV1/2 equal to or lower than 15 mV (letter A in table 3))
EC50 [3]: 1780 nM
Kv7.2/7.3 ΔV1/2 [3]: 26.68 mV

SMILES: O=C(NCc1ccnc(OCC(F)(F)F)c1)NCc1ccccc1Cl [Compound 75, 1-(2-Chlorobenzyl)-3-((2-(2,2,2-trifluoroethoxy)pyridin-4-yl)methyl)urea]
Kv7.4 selectivity criteria [1]: B (Non-selective compounds showed Kv7.4 and/or Kv7.3/7.5 ΔV1/2 higher than 15 mV (letter B in table 3))
Kv7.3/7.5 selectivity criteria [2]: A (Selective compounds showed Kv7.4 and/or Kv7.3/7.5 ΔV1/2 equal to or lower than 15 mV (letter A in table 3))
EC50 [3]: 508 nM
Kv7.2/7.3 ΔV1/2 [3]: 25.35 mV

SMILES: O=C(NCc1ccnc(OCC(F)(F)F)c1)Nc1cc(F)cc(Cl)c1 [Compound 77, 1-(3-Chloro-5-fluorophenyl)-3-((2-(2,2,2-trifluoroethoxy)pyridin-4-yl)methyl)urea]
Kv7.4 selectivity criteria [1]: B (Non-selective compounds showed Kv7.4 and/or Kv7.3/7.5 ΔV1/2 higher than 15 mV (letter B in table 3))
Kv7.3/7.5 selectivity criteria [2]: A (Selective compounds showed Kv7.4 and/or Kv7.3/7.5 ΔV1/2 equal to or lower than 15 mV (letter A in table 3))
EC50 [3]: 549 nM
Kv7.2/7.3 ΔV1/2 [3]: 32.37 mV

SMILES: CC(C)(C)[C@@H](O)CNC(=O)NCc1ccnc(OCCC(F)(F)F)c1 [Compound 78, (R)-1-(2-Hydroxy-3,3-dimethylbutyl)-3-((2-(3,3,3-trifluoropropoxy)pyridin-4-yl)methyl)urea]
Kv7.4 selectivity criteria [1]: A (Selective compounds showed Kv7.4 and/or Kv7.3/7.5 ΔV1/2 equal to or lower than 15 mV (letter A in table 3))
Kv7.3/7.5 selectivity criteria [2]: A (Selective compounds showed Kv7.4 and/or Kv7.3/7.5 ΔV1/2 equal to or lower than 15 mV (letter A in table 3))
EC50 [3]: 11700 nM
Kv7.2/7.3 ΔV1/2 [3]: 19.21 mV

Further lines, with some results ahead:

EC50 [3]: 862 nM
Kv7.2/7.3 ΔV1/2 [3]: 26.55 mV
SMILES: O=C(NCc1ccnc(OCC(F)(F)F)c1)NCC1CCCC(F)(F)C1 (stereo not shown) [Compound 79, 1-((3,3-Difluorocyclohexyl)methyl)-3-((2-(2,2,2-trifluoroethoxy)pyridin-4-yl)methyl) urea]
Kv7.4 selectivity criteria [1]: A (Selective compounds showed Kv7.4 and/or Kv7.3/7.5 ΔV1/2 equal to or lower than 15 mV (letter A in table 3))
Kv7.3/7.5 selectivity criteria [2]: A (Selective compounds showed Kv7.4 and/or Kv7.3/7.5 ΔV1/2 equal to or lower than 15 mV (letter A in table 3))

EC50 [3]: 3900 nM
Kv7.2/7.3 ΔV1/2 [3]: 28.15 mV
SMILES: O=C(NCCC1(C(F)(F)F)CC1)NCc1ccc(OCC(F)(F)F)nc1 [Compound 80, 1-((6-(2,2,2-Trifluoroethoxy)pyridin-3-yl)methyl)-3-(2-(1-(trifluoromethyl)cyclopropyl)ethyl)urea]
Kv7.4 selectivity criteria [1]: B (Non-selective compounds showed Kv7.4 and/or Kv7.3/7.5 ΔV1/2 higher than 15 mV (letter B in table 3))
Kv7.3/7.5 selectivity criteria [2]: A (Selective compounds showed Kv7.4 and/or Kv7.3/7.5 ΔV1/2 equal to or lower than 15 mV (letter A in table 3))

EC50 [3]: 2150 nM
Kv7.2/7.3 ΔV1/2 [3]: 18.38 mV
SMILES: O=C(NCCC1(C(F)(F)F)CC1)NCc1cc(OCC(F)(F)F)nc(C(F)(F)F)c1 [Compound 82, 1-((2-(2,2,2-Trifluoroethoxy)-6-(trifluoromethyl)pyridin-4-yl)methyl)-3-(2-(1-(trifluoromethyl)cyclopropyl)ethyl)urea]
Kv7.4 selectivity criteria [1]: B (Non-selective compounds showed Kv7.4 and/or Kv7.3/7.5 ΔV1/2 higher than 15 mV (letter B in table 3))
Kv7.3/7.5 selectivity criteria [2]: A (Selective compounds showed Kv7.4 and/or Kv7.3/7.5 ΔV1/2 equal to or lower than 15 mV (letter A in table 3))

EC50 [3]: 206 nM
Kv7.2/7.3 ΔV1/2 [3]: 20.49 mV
SMILES: O=C(NCc1ccnc(OCC(F)(F)F)c1)NCc1cc(F)ccc1Cl [Compound 85, 1-(2-Chloro-5-fluorobenzyl)-3-((2-(2,2,2-trifluoroethoxy)pyridin-4-yl)methyl)urea]
Kv7.4 selectivity criteria [1]: A (Selective compounds showed Kv7.4 and/or Kv7.3/7.5 ΔV1/2 equal to or lower than 15 mV (letter A in table 3))
Kv7.3/7.5 selectivity criteria [2]: A (Selective compounds showed Kv7.4 and/or Kv7.3/7.5 ΔV1/2 equal to or lower than 15 mV (letter A in table 3))

EC50 [3]: 1350 nM
Kv7.2/7.3 ΔV1/2 [3]: 38.89 mV
SMILES: O=C(NCc1ccnc(OCC(F)(F)F)c1)N[C@@H]1CCc2ccc(F)cc21 [Compound 86, (R)-1-(6-fluoro-2,3-dihydro-1H-inden-1-yl)-3-((2-(2,2,2-trifluoroethoxy)pyridin-4-yl)methyl)urea]
Kv7.4 selectivity criteria [1]: A (Selective compounds showed Kv7.4 and/or Kv7.3/7.5 ΔV1/2 equal to or lower than 15 mV (letter A in table 3))
Kv7.3/7.5 selectivity criteria [2]: A (Selective compounds showed Kv7.4 and/or Kv7.3/7.5 ΔV1/2 equal to or lower than 15 mV (letter A in table 3))

EC50 [3]: 1850 nM
Kv7.2/7.3 ΔV1/2 [3]: 27.66 mV
SMILES: O=C(NCCC1(C(F)(F)F)CC1)NCc1cc(OCC(F)(F)F)ncc1F [Compound 87, 1-((5-Fluoro-2-(2,2,2-trifluoroethoxy)pyridin-4-yl)methyl)-3-(2-(1-(trifluoromethyl)cyclopropyl)ethyl)urea]
Kv7.4 selectivity criteria [1]: A (Selective compounds showed Kv7.4 and/or Kv7.3/7.5 ΔV1/2 equal to or lower than 15 mV (letter A in table 3))
Kv7.3/7.5 selectivity criteria [2]: A (Selective compounds showed Kv7.4 and/or Kv7.3/7.5 ΔV1/2 equal to or lower than 15 mV (letter A in table 3))
